pEC50, pIC50: −log10 of the molar value.
How the values were obtained:
Type in all cases: cell-based
AR / CBP ternary complex = assay: Ternary complex formation assay (sandwich ELISA, AR capture / CBP detection) in VCaP cell lysates; conditions: 1.5 hours treatment, sandwich ELISA (AR capture, CBP or p300 detection)
In short: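 VCaP cells (50K/well, 5% charcoal-stripped FBS, ≥3 days) treated with bifunctional compound for 1.5 h, then lysed 30 min at 4 °C. AR captured on anti-AR (AR 441) plates; bound CBP or p300 detected by rabbit mAb plus HRP secondary. QuantaRed chemifluorescence read at ex 570/em 585, immediately and at 5 and 15 min.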

VCaP cells = assay: VCaP growth inhibition assay; conditions: 30 pM R1881, 9 days, CTG
In short: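 VCaP cells in phenol red-free DMEM/5% CSS, pre-incubated 72 h, then stimulated with R1881 (final 30 pM) and treated with 1:5 serial dilutions (final 100 nM to 10 fM) for 9 days at 37 °C. Viability by CellTiter-Glo luminescence; IC50 from 4-parameter logistic fit of RLU vs concentration.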

HEK-293 cells = assay: HEK-293 growth inhibition assay; conditions: 3 days, CTG
In short: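 HEK-293 cells plated 24 hours before compound treatment, then exposed for 3 days at 37°C/5% CO2. Viability by CellTiter-Glo luminescence after 20 minutes at room temperature. IC50 from RLU versus concentration via 4-parameter logistic nonlinear regression.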

| pEC50 (AR / CBP ternary complex) | pIC50 (VCaP cells) | Compound | pIC50 (HEK-293 cells) |
| --- | --- | --- | --- |
| > 9.00 | 7.00 to 9.00 | CC(=O)N1CCc2c(c(-c3cccc4cc(-c5cnc(CCN(C)c6ncc(C(=O)NC7C(C)(C)C(Oc8ccc(C#N)c(Cl)c8)C7(C)C)cn6)nc5)ncc34)nn2C2CCOCC2)C1 (stereo not drawn) [Compound 74, 2-[2-[5-[8-(5-acetyl-1-tetrahydropyran-4-yl-6,7-dihydro-4H-pyrazolo[4,3-c]pyridin-3-yl)-3-isoquinolyl]pyrimidin-2-yl]ethyl-methyl-amino]-N-[3-(3-chloro-4-cyano-phenoxy)-2,2,4,4-tetramethyl-cyclobutyl]pyrimidine-5-carboxamide] | < 5.00 |
| > 9.00 | ≥ 10.00 | CC(=O)N1CCc2c(c(N3CCCc4cc(-c5cnn(C)c5)c(C(F)F)cc43)nn2C2CCN(S(=O)(=O)C3CCN(c4ncc(C(=O)NC5C(C)(C)C(Oc6ccc(C#N)c(Cl)c6)C5(C)C)cn4)CC3)CC2)C1 (stereo not drawn) [Compound 28, 2-[4-[[4-[5-acetyl-3-[7-(difluoromethyl)-6-(1-methylpyrazol-4-yl)-3,4-dihydro-2H-quinolin-1-yl]-6,7-dihydro-4H-pyrazolo[4,3-c]pyridin-1-yl]-1-piperidyl]sulfonyl]-1-piperidyl]-N-[3-(3-chloro-4-cyano-phenoxy)-2,2,4,4-tetramethyl-cyclobutyl]pyrimidine-5-carboxamide] | < 5.00 |
| > 9.00 | ≥ 10.00 | CC(=O)N1CCc2c(c(N3CCCc4cc(-c5cnn(C)c5)c(C(F)F)cc43)nn2C2CCN(C(=O)CC3CCN(c4ncc(C(=O)NC5C(C)(C)C(Oc6ccc(C#N)c(Cl)c6)C5(C)C)cn4)CC3)CC2)C1 (stereo not drawn) [Compound 172, 2-[4-[2-[4-[5-acetyl-3-[7-(difluoromethyl)-6-(1-methylpyrazol-4-yl)-3,4-dihydro-2H-quinolin-1-yl]-6,7-dihydro-4H-pyrazolo[4,3-c]pyridin-1-yl]-1-piperidyl]-2-oxo-ethyl]-1-piperidyl]-N-[3-(3-chloro-4-cyano-phenoxy)-2,2,4,4-tetramethyl-cyclobutyl]pyrimidine-5-carboxamide] | < 5.00 |
| > 9.00 | ≥ 10.00 | CC(=O)N1CCc2c(c(N3CCCc4cc(-c5cnn(C)c5)c(C(F)F)cc43)nn2C2CCN(CC3CN(c4ncc(C(=O)NC5C(C)(C)C(Oc6ccc(C#N)c(Cl)c6)C5(C)C)cn4)C3)CC2)C1 (stereo not drawn) [Compound 20, 2-[3-[[4-[5-acetyl-3-[7-(difluoromethyl)-6-(1-methylpyrazol-4-yl)-3,4-dihydro-2H-quinolin-1-yl]-6,7-dihydro-4H-pyrazolo[4,3-c]pyridin-1-yl]-1-piperidyl]methyl]azetidin-1-yl]-N-[3-(3-chloro-4-cyano-phenoxy)-2,2,4,4-tetramethyl-cyclobutyl]pyrimidine-5-carboxamide] | < 5.00 |
| < 7.00 | 9.00 to 10.00 | CC(=O)N1CCc2c(c(-c3cccc4cc(-c5cnc(C(=O)NCc6ncc(C(=O)NC7C(C)(C)C(Oc8ccc(C#N)c(Cl)c8)C7(C)C)cn6)nc5)ncc34)nn2C2CCOCC2)C1 (stereo not drawn) [Compound 75, 5-[8-(5-acetyl-1-tetrahydropyran-4-yl-6,7-dihydro-4H-pyrazolo[4,3-c]pyridin-3-yl)-3-isoquinolyl]-N-[[5-[[3-(3-chloro-4-cyano-phenoxy)-2,2,4,4-tetramethyl-cyclobutyl]carbamoyl]pyrimidin-2-yl]methyl]pyrimidine-2-carboxamide] | < 5.00 |
| > 9.00 | ≥ 10.00 | CNC(=O)N1CCc2c(c(N3CCCc4cc(-c5cnn(C)c5)c(C(F)F)cc43)nn2C2CCN(C(=O)CN3CCN(c4ccc(C(=O)NC5C(C)(C)C(Oc6ccc(C#N)c(Cl)c6)C5(C)C)cn4)CC3)CC2)C1 (stereo not drawn) [Compound 42, 1-[1-[2-[4-[5-[[3-(3-chloro-4-cyano-phenoxy)-2,2,4,4-tetramethyl-cyclobutyl]carbamoyl]-2-pyridyl]piperazin-1-yl]acetyl]-4-piperidyl]-3-[7-(difluoromethyl)-6-(1-methylpyrazol-4-yl)-3,4-dihydro-2H-quinolin-1-yl]-N-methyl-6,7-dihydro-4H-pyrazolo[4,3-c] pyridine-5-carboxamide] | < 5.00 |
| > 9.00 | ≥ 10.00 | CC(=O)N1CCc2c(c(N3CCCc4cc(-c5cnn(C)c5)c(C(F)F)cc43)nn2C2CCN(C[C@@H]3CCN(c4ncc(C(=O)NC5C(C)(C)C(Oc6ccc(C#N)c(Cl)c6)C5(C)C)cn4)C[C@@H]3C)CC2)C1 (stereo partly drawn) [Compound 275, 2-[(3R,4R)-4-[[4-[5-acetyl-3-[7-(difluoromethyl)-6-(1-methylpyrazol-4-yl)-3,4-dihydro-2H-quinolin-1-yl]-6,7-dihydro-4H-pyrazolo[4,3-c]pyridin-1-yl]-1-piperidyl]methyl]-3-methyl-1-piperidyl]-N-[3-(3-chloro-4-cyano-phenoxy)-2,2,4,4-tetramethyl-cyclobutyl]pyrimidine-5-carboxamide] | < 6.00 |

| Compound | pEC50 (AR / CBP ternary complex) | pIC50 (VCaP cells) | pIC50 (HEK-293 cells) |
| --- | --- | --- | --- |
| CNC(=O)N1CCc2c(c(N3CCCc4cc(-c5cnn(C)c5)c(C(F)F)cc43)nn2C2CCN(C(=O)CN3CCN(c4ccc(C(=O)NC5C(C)(C)C(Oc6ccc(C#N)c(Cl)c6)C5(C)C)cc4)CC3)CC2)C1 (stereo not drawn) [Compound 41, 1-[1-[2-[4-[4-[[3-(3-chloro-4-cyano-phenoxy)-2,2,4,4-tetramethyl-cyclobutyl]carbamoyl]phenyl]piperazin-1-yl]acetyl]-4-piperidyl]-3-[7-(difluoromethyl)-6-(1-methylpyrazol-4-yl)-3,4-dihydro-2H-quinolin-1-yl]-N-methyl-6,7-dihydro-4H-pyrazolo[4,3-c]pyridine-5-carboxamide] | > 9.00 | 9.00 to 10.00 | < 5.00 |
| CNC(=O)N1CCc2c(c(N3CCCc4cc(-c5cnn(C)c5)c(C(F)F)cc43)nn2C2CCN(C(=O)CCN3CCN(c4ncc(C(=O)NC5C(C)(C)C(Oc6ccc(C#N)c(Cl)c6)C5(C)C)cn4)CC3)CC2)C1 (stereo not drawn) [Compound 108, 1-[1-[3-[4-[5-[[3-(3-chloro-4-cyano-phenoxy)-2,2,4,4-tetramethyl-cyclobutyl]carbamoyl]pyrimidin-2-yl]piperazin-1-yl]propanoyl]-4-piperidyl]-3-[7-(difluoromethyl)-6-(1-methylpyrazol-4-yl)-3,4-dihydro-2H-quinolin-1-yl]-N-methyl-6,7-dihydro-4H-pyrazolo[4,3-c]pyridine-5-carboxamide] | > 9.00 | ≥ 10.00 | < 5.00 |
| CNC(=O)N1CCc2c(c(N3CCCc4cc(-c5cnn(C)c5)c(C(F)F)cc43)nn2C2CCN(C(=O)COCCN3CCN(c4ncc(C(=O)NC5C(C)(C)C(Oc6ccc(C#N)c(Cl)c6)C5(C)C)cn4)CC3)CC2)C1 (stereo not drawn) [Compound 106, 1-[1-[2-[2-[4-[5-[[3-(3-chloro-4-cyano-phenoxy)-2,2,4,4-tetramethyl-cyclobutyl]carbamoyl]pyrimidin-2-yl]piperazin-1-yl]ethoxy]acetyl]-4-piperidyl]-3-[7-(difluoromethyl)-6-(1-methylpyrazol-4-yl)-3,4-dihydro-2H-quinolin-1-yl]-N-methyl-6,7-dihydro-4H-pyrazolo[4,3-c]pyridine-5-carboxamide] | > 9.00 | ≥ 10.00 | < 5.00 |
| CNC(=O)N1CCc2c(c(N3CCCc4cc(-c5cnn(C)c5)c(C(F)F)cc43)nn2C2CCN(C(=O)COC3CCN(c4ncc(C(=O)NC5C(C)(C)C(Oc6ccc(C#N)c(Cl)c6)C5(C)C)cn4)CC3)CC2)C1 (stereo not drawn) [Compound 100, 1-[1-[2-[[1-[5-[[3-(3-chloro-4-cyano-phenoxy)-2,2,4,4-tetramethyl-cyclobutyl]carbamoyl]pyrimidin-2-yl]-4-piperidyl]oxy]acetyl]-4-piperidyl]-3-[7-(difluoromethyl)-6-(1-methylpyrazol-4-yl)-3,4-dihydro-2H-quinolin-1-yl]-N-methyl-6,7-dihydro-4H-pyrazolo[4,3-c]pyridine-5-carboxamide] | > 9.00 | ≥ 10.00 | < 5.00 |
| CC(=O)N1CCc2c(c(N3CCCc4cc(-c5cnn(C)c5)c(C(F)F)cc43)nn2C2CCN(C(=O)OC3CCN(c4ncc(C(=O)NC5C(C)(C)C(Oc6ccc(C#N)c(Cl)c6)C5(C)C)cn4)CC3)CC2)C1 (stereo not drawn) [Compound 70, [1-[5-[[3-(3-chloro-4-cyano-phenoxy)-2,2,4,4-tetramethyl-cyclobutyl]carbamoyl]pyrimidin-2-yl]-4-piperidyl]4-[5-acetyl-3-[7-(difluoromethyl)-6-(1-methylpyrazol-4-yl)-3,4-dihydro-2H-quinolin-1-yl]-6,7-dihydro-4H-pyrazolo[4,3-c]pyridin-1-yl]piperidine-1-carboxylate] | > 9.00 | 9.00 to 10.00 | < 5.00 |
| CC(=O)N1CCc2c(c(N3CCCc4cc(-c5cnn(C)c5)c(C(F)F)cc43)nn2C2CCN(C(=O)C3CCN(c4ncc(C(=O)NC5C(C)(C)C(Oc6ccc(C#N)c(Cl)c6)C5(C)C)cn4)CC3)CC2)C1 (stereo not drawn) [Compound 22, 2-[4-[4-[5-acetyl-3-[7-(difluoromethyl)-6-(1-methylpyrazol-4-yl)-3,4-dihydro-2H-quinolin-1-yl]-6,7-dihydro-4H-pyrazolo[4,3-c]pyridin-1-yl]piperidine-1-carbonyl]-1-piperidyl]-N-[3-(3-chloro-4-cyano-phenoxy)-2,2,4,4-tetramethyl-cyclobutyl]pyrimidine-5-carboxamide] | > 9.00 | ≥ 10.00 | < 5.00 |

Source: patent US20250129070A1, “BIFUNCTIONAL ANDROGEN RECEPTOR COMPOUNDS” (priority 2023, published 2025)
